Source: PubChem BioAssay (NCI)
Where “and” joins values, the source holds several entries; their conditions need not be identical. Equal entries are not always repeated.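 Following 48 hours of exposure in 96-well plates, responses at five concentrations were used to interpolate endpoints linearly. The concentration for 50% growth inhibition is given as GI50. TGI is the concentration that stops growth completely.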

Key:
Test in all cases: NCI anticancer screen, dose series, 48 h
786-0 renal = system: 786-0 renal
HOP-92 NSCLC = system: HOP-92 NSCLC
K-562 leukemia = system: K-562 leukemia
M14 melanoma = system: M14 melanoma
RPMI-8226 leukemia = system: RPMI-8226 leukemia
SF-268 CNS = system: SF-268 CNS
SK-MEL-28 melanoma = system: SK-MEL-28 melanoma
SN12C renal = system: SN12C renal
SK-MEL-5 melanoma = system: SK-MEL-5 melanoma
T-47D breast = system: T-47D breast

| SMILES | TGI (786-0 renal) | TGI (HOP-92 NSCLC) [µM] | TGI (K-562 leukemia) [µM] | TGI (M14 melanoma) | TGI (RPMI-8226 leukemia) [µM] | TGI (SF-268 CNS) [µM] | TGI (SK-MEL-28 melanoma) | TGI (SN12C renal) | TGI (SK-MEL-5 melanoma) | TGI (T-47D breast) | GI50 (K-562 leukemia) [µM] | GI50 (RPMI-8226 leukemia) | GI50 (SF-268 CNS) | GI50 (SN12C renal) |
| --- | --- | --- | --- | --- | --- | --- | --- | --- | --- | --- | --- | --- | --- | --- |
| O=C1c2ccccc2-c2nc(-c3cccnc3)cc3c2c1nc1ccccc13 | > 100 µM | > 100 | > 100 | > 100 µM | > 100 | > 100 | > 100 µM | > 100 µM | – | – | – | – | – | – |
| O=C(/C=C/c1ccc(O)c(O)c1)OCCc1cccc2ccccc12 | 12.7 µM | 23.8 | 9.08 | 20.3 µM | 20.5 | 27 | 16.9 µM | 7.96 µM | 5.31 µM | 42.3 µM | – | – | – | – |
| COc1cc(/C=C/C(C)=O)ccc1OP(=O)(O)O | > 100 µM | > 100 | – | > 100 µM | > 100 | > 100 | > 100 µM | > 100 µM | > 100 µM | – | – | – | – | – |
| N#Cc1c(-c2ccccc2)/c(=C\O)c(=O)n2c1nc1ccccc12 | > 100 µM | – | > 100 | > 100 µM | > 100 | > 100 | > 100 µM | > 100 µM | > 100 µM | > 100 µM | – | – | – | – |
| CCOP(=O)(Nc1ccc(-c2ccccc2)cc1)OCC | > 100 µM | > 100 | > 100 | > 100 µM | > 100 | > 100 | > 100 µM | – | > 100 µM | – | – | – | – | – |
| c1ccc(N=C2SC(=NNc3ccccc3)SC2=Nc2ccccc2)cc1 | > 100 µM | > 100 | > 100 | – | > 100 | > 100 | > 100 µM | > 100 µM | > 100 µM | > 100 µM | – | – | – | – |
| Cc1nc2c(o1)C(=O)c1ccccc1/C2=N/c1ccccn1 | 58.7 µM | 36.9 | > 100 | 33.6 µM | > 100 | 68.9 | 32.8 µM | 64.1 µM | 30.4 µM | – | – | – | – | – |
| CN1CCC2(CC1)C(=O)N(N1CCCCCC1)C(=O)N2c1ccccc1 | > 100 µM | – | > 100 | > 100 µM | > 100 | > 100 | > 100 µM | > 100 µM | > 100 µM | > 100 µM | – | – | – | – |
| COc1cccc2cc(C(N)=O)c(=N)oc12 | > 100 µM | > 100 | > 100 | > 100 µM | > 100 | > 100 | > 100 µM | > 100 µM | > 100 µM | > 100 µM | – | – | – | – |
| C1COC(NC(C2CC2)C2CC2)=N1 | > 100 µM | > 100 | > 100 | > 100 µM | > 100 | – | > 100 µM | – | > 100 µM | > 100 µM | – | – | – | – |
| CC(C)OP(=O)(CN(C)/C(F)=N\C(F)(F)F)OC(C)C | > 100 µM | > 100 | > 100 | > 100 µM | – | > 100 | > 100 µM | > 100 µM | > 100 µM | > 100 µM | – | – | – | – |
| COc1cc(OC)c2c(c1OC)OCC(Cc1ccc(O)cc1)C2=O (configuration not stated) | > 25 µM | – | > 25 | > 25 µM | > 25 | > 25 | > 25 µM | > 25 µM | > 25 µM | > 25 µM | – | – | – | – |
| NC1C/C(=N\O)c2c(I)sc(I)c21 (configuration not stated) | > 50.9 µM | 34.5 | > 74.1 | 30.9 µM | > 42 | 35.3 | 32.5 µM | > 56.6 µM | 28.4 µM | 52.3 µM | – | – | – | – |
| C=C1c2c(cc3c(c2O)c(=O)c2ccccc2n3C)OC1(C)C | – | 65.9 | – | > 100 µM | > 100 | > 100 | > 100 µM | > 100 µM | > 100 µM | – | – | – | – | – |
| Cc1ccc(C(=O)C(C)N)cc1 (configuration not stated) | > 100 µM | > 100 | > 100 | > 100 µM | > 100 | > 100 | > 100 µM | > 100 µM | > 100 µM | – | – | – | – | – |
| O=C(Cn1nc(Br)c(Br)c1Br)c1ccccc1 | 77.4 µM | 66.8 | 28.7 | 92.1 µM | – | > 100 | > 100 µM | > 100 µM | 34.5 µM | 89.1 µM | – | – | – | – |
| Cc1c(-c2cc3n(n2)C(c2cccs2)C(C#N)=C(c2ccccc2)N3)c(=O)n(-c2ccccc2)n1C (configuration not stated) | – | > 100 | > 100 | – | – | > 100 | > 100 µM | > 100 µM | > 85.8 µM | – | – | – | – | – |
| O=c1[nH]c2ccc(CC(=S)N3CCOCC3)cc2s1 | > 100 µM | – | > 100 | > 100 µM | > 100 | > 100 | > 100 µM | > 100 µM | > 100 µM | – | – | – | – | – |
| CCOP(=O)(/C=C\n1cnc2c(=O)n(C(C)=O)c(N)nc21)OCC | > 100 µM | – | > 100 | > 100 µM | > 100 | – | > 100 µM | > 100 µM | > 100 µM | > 100 µM | – | – | – | – |
| O=C(c1cc(Cl)cc(Cl)c1)N(C(=S)OC12CC3CC(CC(C3)C1)C2)c1ccccc1 | > 100 µM | > 100 | – | 56.7 µM | – | > 100 | > 100 µM | > 100 µM | > 100 µM | > 100 µM | – | – | – | – |
| CC(C)C(C/C=C1/CC(CO)(COC(=O)CC(C(C)C)C(C)C)OC1=O)C(C)C (configuration not stated) | 23.3 µM | 18.7 | > 36.3 | 26.8 µM | – | 23.1 | 27.7 µM | 31.9 µM | 22.3 µM | 22.9 µM | – | – | – | – |
| N#CCC(=O)Nn1c(CC#N)nnc1Cc1ccccc1 | > 100 µM | > 100 | > 100 | > 100 µM | > 100 | > 100 | > 100 µM | – | > 100 µM | > 100 µM | – | – | – | – |
| COc1cc([C@@H]2c3cc4c(cc3[C@@H](NCCNCCO)[C@H]3COC(=O)[C@H]23)OCO4)cc(OC)c1O | 3.02 µM and 3.48 µM | – | > 100 | 28.1 µM and 20.2 µM | 3.84 | 51.8 | 9.5 µM and 9.02 µM | 24.1 µM and 3.19 µM | 5.14 µM and 6.05 µM | 11.9 µM and 8.93 µM | 1.45 | 0.46 µM and 0.522 µM | 0.761 µM and 1.59 µM | 0.934 µM and 0.331 µM |
